The values that follow come from the supplement of paper PMC10331698.

± gives the standard deviation of the averaged measurements.

Holding throughout (assay): level (log10 ratio to DMSO vehicle control); higher = higher biomarker level / cell amount than vehicle control
Compound in assay [1]: OCCC(F)(F)C(F)(F)C(F)(F)C(F)(F)F [4:2 Fluorotelomer alcohol] (in DMSO)
Here is the method:
(§1)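 BioMAP Diversity Plus panel of 12 human primary cell co-culture systems (3C, 4H, LPS, SAg, BT, BF4T, BE3C, CASM3C, HDF3CGF, KF3CT, MyoF, Mphg). Compounds were added 1 h before stimulation and left for 24 h (MyoF 48 h; BT 72 h for soluble read-outs or 6 d for IgG). Biomarkers were read by ELISA, cytotoxicity by SRB, PBMC viability and proliferation by Alamar Blue. Each well value was divided by the mean of 8 DMSO control wells on the same plate and log10 transformed; duplicate blinded samples were tested at 4 concentrations.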

Compound in assay [2]: O=C(O)C(F)(OC(F)(F)C(F)(OC(F)(F)C(F)(OC(F)(F)C(F)(F)C(F)(F)F)C(F)(F)F)C(F)(F)F)C(F)(F)F [Perfluoro-(2,5,8-trimethyl-3,6,9-trioxadodecanoic)acid] (in DMSO)
On the procedure: as §1

Compound in assay [3]: O=C(O)C(F)(F)C(F)(F)C(F)(F)C(F)(F)C(F)(F)C(F)(F)C(F)(F)C(F)(F)F [Perfluorononanoic acid] (in DMSO)
Here is the method:
as §1

Compound in assay [4]: O=S(=O)(O)CCC(F)(F)C(F)(F)C(F)(F)C(F)(F)C(F)(F)C(F)(F)C(F)(F)C(F)(F)F [8:2 Fluorotelomer sulfonic acid] (in DMSO)
On the procedure:
as §1

Compound in assay [5]: O=S(=O)(O)C(F)(F)C(F)(F)C(F)(F)C(F)(F)C(F)(F)C(F)(F)C(F)(F)F [Perfluoroheptanesulfonic acid] (in DMSO)
Here is the method:
as §1

Compound in assay [6]: O=C(O)C(F)(F)C(F)(F)C(F)(F)C(F)(F)C(F)(F)C(F)(F)C(F)(F)C(F)(F)C(F)(F)C(F)(F)F [Perfluoroundecanoic acid] (in DMSO)
The conditions noted are these: 6700 nM. On the procedure: as §1

Compound in assay [7]: C=C(C)C(=O)OCCC(F)(F)C(F)(F)C(F)(F)C(F)(F)C(F)(F)C(F)(F)C(F)(F)C(F)(F)F [8:2 Fluorotelomer methacrylate] (in DMSO)
On the procedure:
as §1

Turning to lMphg:CCL3/MIP-1alpha, the “level (log10)” value in assay [1] (6700 nM) was -0.009 ± 0.0042; in assay [1] (20000 nM), -0.011 ± 0.014; in assay [1] (60000 nM), 0.0005 ± 0.019; in assay [2] (1100 nM), 0.0465 ± 0.019; in assay [2] (3300 nM), -0.003 ± 0.05; in assay [2] (10000 nM) it was 0.039 ± 0.041. Also, the “level (log10)” value in assay [3] (6700 nM) was 0.004 ± 0.0028; in assay [3] (20000 nM) it was 0.0175 ± 0.0021; in assay [4] (6700 nM), 0.0035 ± 0.03; in assay [4] (20000 nM), 0.0095 ± 0.026; in assay [4] (60000 nM), 0.0065 ± 0.032; in assay [5] (1500 nM), -0.04 ± 0.0071. In addition, the “level (log10)” value was -0.0135 ± 0.047 in assay [5] (4400 nM); -0.0225 ± 0.064 in assay [5] (13000 nM); -0.014 ± 0.037 in assay [5] (40000 nM); -0.004 ± 0.023 in assay [6]; 0.0075 ± 0.039 in assay [7] (6700 nM); 0.028 ± 0.065 in assay [7] (20000 nM).
Take lMphg:CD40: the “level (log10)” value in assay [1] (6700 nM) was 0.0015 ± 0.013; in assay [1] (20000 nM) it was 0.016 ± 0.0085; in assay [1] (60000 nM), 0.0025 ± 0.015; in assay [2] (1100 nM), 0.019 ± 0.057; in assay [2] (3300 nM), 0.026 ± 0.076; in assay [2] (10000 nM), -0.0195 ± 0.036. The “level (log10)” value was 0.002 ± 0.013 in assay [3] (6700 nM); -0.03 ± 0.03 in assay [3] (20000 nM); -0.026 ± 0.023 in assay [4] (6700 nM); -0.052 ± 0.0028 in assay [4] (20000 nM); -0.0995 ± 0.019 in assay [4] (60000 nM); -0.034 ± 0.021 in assay [5] (1500 nM). The “level (log10)” value in assay [5] (4400 nM) was -0.007 ± 0.034; in assay [5] (13000 nM), -0.0285 ± 0.043; in assay [5] (40000 nM), -0.0525 ± 0.028; in assay [6] it was -0.008 ± 0.018; in assay [7] (6700 nM), -0.0215 ± 0.029; in assay [7] (20000 nM) it was -0.05 ± 0.052.
For the test system lMphg:CD62E/E-Selectin, the “level (log10)” value in assay [1] (6700 nM) is -0.0075 ± 0.022; in assay [1] (20000 nM), -0.003 ± 0.013; in assay [1] (60000 nM), 0.0185 ± 0.0021; in assay [2] (1100 nM) it was 0.002 ± 0.0014; in assay [2] (3300 nM), -0.03 ± 0.0028; in assay [2] (10000 nM), -0.0275 ± 0.026. Moreover, the “level (log10)” value was 0.0125 ± 0.035 in assay [3] (6700 nM); 0.0365 ± 0.00071 in assay [3] (20000 nM); 0.0165 ± 0.0092 in assay [4] (6700 nM); 0.048 ± 0.0042 in assay [4] (20000 nM); 0.103 ± 0.0057 in assay [4] (60000 nM); -0.029 ± 0.028 in assay [5] (1500 nM). In addition, the “level (log10)” value in assay [5] (4400 nM) was -0.0015 ± 0.046; in assay [5] (13000 nM) it was -0.0135 ± 0.054; in assay [5] (40000 nM), 0.0415 ± 0.043; in assay [6], -0.004 ± 0.041; in assay [7] (6700 nM), 0.0085 ± 0.015; in assay [7] (20000 nM), 0.02 ± 0.014.
Take lMphg:CD69: the “level (log10)” value in assay [1] (6700 nM) is 0.0115 ± 0.07; in assay [1] (20000 nM) it was 0.007 ± 0.041; in assay [1] (60000 nM), 0.0155 ± 0.0035; in assay [2] (1100 nM) it was -0.02 ± 0.0099; in assay [2] (3300 nM), -0.017 ± 0.0042; in assay [2] (10000 nM), -0.008 ± 0.0014. Further, the “level (log10)” value in assay [3] (6700 nM) is -0.0165 ± 0.069; in assay [3] (20000 nM) it was 0.0125 ± 0.032; in assay [4] (6700 nM), -0.0695 ± 0.023; in assay [4] (20000 nM) it was -0.059 ± 0.0028; in assay [4] (60000 nM), -0.173 ± 0.025; in assay [5] (1500 nM), -0.014 ± 0.055. For the same test system, the “level (log10)” value in assay [5] (4400 nM) is -0.008 ± 0.027; in assay [5] (13000 nM) it was -0.0145 ± 0.00071; in assay [5] (40000 nM) it was -0.0155 ± 0.018; in assay [6], -0.048 ± 0.083; in assay [7] (6700 nM), -0.041 ± 0.037; in assay [7] (20000 nM) it was -0.041.
In the case of lMphg:CD106/VCAM-1, the “level (log10)” value in assay [1] (6700 nM) is -0.0025 ± 0.016; in assay [1] (20000 nM), 0.0005 ± 0.011; in assay [1] (60000 nM) it was 0.0005 ± 0.025; in assay [2] (1100 nM), 0.001 ± 0.0014; in assay [2] (3300 nM), 0.003 ± 0.021; in assay [2] (10000 nM), 0.0015 ± 0.044. For the same test system, the “level (log10)” value is 0.001 ± 0.04 in assay [3] (6700 nM); -0.005 ± 0.02 in assay [3] (20000 nM); -0.0355 ± 0.005 in assay [4] (6700 nM); -0.042 ± 0.0071 in assay [4] (20000 nM); -0.08 ± 0.0057 in assay [4] (60000 nM); -0.0135 ± 0.0035 in assay [5] (1500 nM). For the same test system, the “level (log10)” value in assay [5] (4400 nM) was -0.0285 ± 0.021; in assay [5] (13000 nM), -0.0115 ± 0.016; in assay [5] (40000 nM), -0.019 ± 0.0014; in assay [6], -0.004 ± 0.0057; in assay [7] (6700 nM) it was -0.0245 ± 0.0035; in assay [7] (20000 nM) it was -0.0315 ± 0.016.
